{"source": "patent US20240262845A1", "about": "“PYRIDINIUM SALTS, METHODS OF MAKING, AND METHODS OF USE” (UNIVERSITY OF WYOMING, priority 2023, published 2024)", "test_system": "HEK293T lysates", "assay": "Chemoproteomic profiling of HEK293T lysates (protein-level enrichment)", "type": "biochemical, human", "method": "In lysate tryptophan probe treatment for protein-level characterization: HEK293T cell pellets were suspended in native lysis buffer (50 mM HEPES pH 7.5, 150 mM sodium chloride (NaCl), 1.5 mM MgCl2, 1 mM DTT, 0.8% NP-40, 5% glycerol, and 1× protease inhibitors (Thermo)) at 2× the pellet volume. The samples were sonicated on ice for 30 seconds at 20% amplitude with a 2 second pulse ON and 3 second pulse OFF. Cell debris was removed by centrifugation at 20,000×g for 20 minutes at 4° C. Protein concentration was determined by bicinchoninic acid (BCA) (Pierce) and diluted down to 5 mg/mL with ChemProt buffer (50 mM HEPES pH 7.5, 150 mM NaCl, 1.5 mM MgCl2, 1 mM DTT, 0.4% NP-40, and 1x protease inhibitors (Thermo). 5 mg cell lysates were treated with 100× stocks of the tryptophan probes (pyridinium salts 1a, 1b, and 2b) to generate final concentrations (0, 1, 10, and 100 μM) in 1% DMSO. Lysates were incubated for 1 hour at 4° C. followed by photo-activation at respective wavelengths for 20 minutes at 4° C. Excess probe was removed using Sephadex G-25 PD-10 desalting columns (GE Healthcare) pre-equilibrated with 50 mM HEPES pH 7.5, 150 mM NaCl, 1.5 mM MgCl2, and 0.4% NP-40. The samples were then treated with 100 μL Neutravidin resin as a 50% slurry (Peirce). The samples were incubated overnight on a rotating apparatus at R.T. The following day, the beads were transferred to a MobiCol column (Boca Scientific), washed 3× with phosphate buffered saline (PBS) containing 0.2% SDS, washed 3× with PBS, and the enriched proteins were eluted with 2× NuPAGE lithium dodecyl sulfate (LDS) containing 10 mM DTT (Pierce) and heated for 30 minutes at 55° C. The eluent was collected and subsequently treated with 20 mM iodoacetamide (Pierce) for 30 minutes at R.T. protected from light. Samples were passed through detergent removal columns (Pierce) that were pre-equilibrated with 50 mM HEPES pH 8.0. The samples were treated with 2.5 μg Trypsin/LysC (Promega) at 37° C. for 16 hours. The following day, the sample was collected and prepped for isobaric labeling with TMT reagents (Thermo) as specified by the manufacturer.\nQuantitative proteomics by two-dimensional nano liquid chromatography-tandem mass spectrometry (nLC-MS/MS): For protein-level characterization, the TMT-labeled sample were reconstituted in 0.1% formic acid (FA)/2% acetonitrile for offline high-pH reversed phase separation (RP10) using a Dionex UltiMate 3000 high-performance liquid chromatography (HPLC) system with fraction collection using Chromeleon v.6.8 (Thermo) software. Separation was achieved on a Waters Xbridge C18 3.5 μm 2.1×150 mm HPLC column (Waters) using a flow rate of 250 μL min-1 and the following ternary gradient and conditions: mobile phase A=water (HPLC grade), mobile phase B=acetonitrile (HPLC grade), and mobile phase C=200 mM ammonium acetate, pH 10. Mobile phase C is held at 10% throughout gradient. Starting conditions are 89% mobile phase A and 1% mobile phase B, ramping mobile phase B to 80% over 65 min. Fractions were collected in 96-well plates at 100 sec per well. Fractions were reduced down to 12 fractions, dried, and reconstituted in 0.1% FA/2% acetonitrile for nLC-MS/MS. All data were acquired using a Orbitrap Fusion Lumos coupled to an Easy-nLC 1200 nanoflow liquid chromatograph operating at 300 nL min-1. Peptides were cleaned up using a 1 cm online custom trap then eluted on a custom 20 cm laser pulled 75 μm column with C18 resin. Peptides were quantified using the synchronous precursor selection (SPS-MS3) or HCD method for TMT quantitation with 120k MS1 resolving power, 50 ms max injection time and 100% AGC. MS2 spectra were selected using the top ten most abundant features with a charge state between 2-6 using CID (collision induced dissociation) in the ion trap. The AGC was set to 100% with an isolation width of 0.7. MS3 was performed on the top 10 most abundant MS2 features between 400-1600 amu with a collision energy of 55%, AGC of 250%, and 50k resolution. […]", "note": "Entries after “also recorded” stand apart in the source; their conditions may differ. Where a name gives a salt, the structure may show the parent alone.", "data": [{"smiles": "COc1ccc2cc(-c3cc(C)[n+](N(C)C(=O)OCCCCC[C@H]4SC[C@H]5NC(=O)N[C@H]54)c(C)c3)ccc2c1", "note": "(stereo in doubt) [pyridinium salt 2b, 4-(6-methoxynaphthalen-2-yl)-2,6-dimethyl-1-(methyl(((5-((3aR,4R,6aS)-2-oxohexahydro-1H-thieno[3,4-d]imidazol-4-yl)pentyl)oxy)carbonyl)amino)pyridin-1-ium tetrafluoroborate]", "values": [{"measurement": "Western blot (streptavidin-HRP) proteome labeling profile of elutions", "setting": "0-100 μM probe, with/without light, before digestion", "result": "concentration and optically dependent proteome labeling profiles; also recorded: dose-response profiles"}, {"measurement": "percentage of unique enriched proteins (proteome coverage comparison of probes)", "setting": "100 μM probe, FIG. 17B", "result": "about 69%"}, {"measurement": "number of proteins identified (from ≥2 unique peptides) showing ≥2-fold enrichment versus DMSO", "setting": "about 100 μM probe, 5 mg/mL lysate, 60 min incubation, 20 min irradiation: 302 nm (1a), 320 nm (1b), 440 nm (2b)", "result": 523}]}]}
